Results on three substances are retold here after publication PMC11272584 (Nature Metabolism, 2024).

In assay [1] the test system is GIPR. Conditions: cited from earlier work. An excerpt:
(§1) Development of similar Gs biased analogues for the GIPR has also been proposed. Although it is not possible to genetically instrument the dual agonistic effects, our results and those of others[33] highlight that decreased recruitment of β-arrestins might benefit the GLP-1R system[36],[37] but not for the GIPR regarding its role in glycaemic control. Ye ...

Assay [2] has as its target T1, GLP-1R (Homo sapiens, UniProt P43220).
T1 construct: expressed in transfected cells; host or cells: parental HEK293A cells and β-arrestin 1/2 KO HEK293A cells
To be noted: cited from earlier work.
Description: as §1

For assay [3], the system named is SNAP-GIPR V99I. To be noted: HEK293A.
For assay [4], the system named is SNAP-GIPR A150T. To be noted: HEK293A.
Assay [5] relates to GIPR variants (groups).
Description: This prompted us to further assess the role of β-arrestin for GIPR signalling by investigating the endosomal signalling in representative GIPR variants from each of the six in vitro-based groups.
At 48 h post-transfection, cells were washed with HBSS and subsequently maintained in 80 µl HBSS. […] Light emission at 515/20 nm (acceptor; rGFP) and 400/70 nm (donor; Rluc8) was measured using a Tecan Spark multimode microplate reader (Männedorf).
Assay [6] has as its system SNAP-WT GIPR. To be noted: HEK293A.
The test system of assay [7] is GIPR W90Lfs*17. Conditions: GIPR W90Lfs* (ECD), mean, n = 5, duplicate.
Description: HEK293 (CRL-1573, American Type Culture Collection) and β-arrestin 1/2 knockout cells, generated from HEK293A[48], were used for cAMP measurement, homologues competition binding and β-arrestin 2 recruitment. […] Both cell lines were cultured at 5% CO2 at 37 °C in Roswell Park Memorial Institute GlutaMAX-I supplemented with 10% fetal bovine serum, 180 units ml^−1 penicillin, and 45 g ml^−1 streptomycin. […] The polyethyleneimine (PEI) transfection method was used for the β-arrestin 2 recruitment assays[50], endosomal signalling and basal receptor localization assays, while the lipofectamine transfection method was used for the internalization assay.
(§4) Measurement of β-arrestin 2 recruitment was performed with a BRET assay. Two days before the assay, the HEK293 cells were transiently transfected with either WT GIPR or the GIPR variants together with the donor Rluc8-Arrestin-3-Sp1, the acceptor mem-linker-citrine-SH3 and the GPCR kinase 2 to facilitate β-arrestin 2 recruitment. On assay day, the cells were washed with PBS and resuspended in PBS supplemented with 5 mmol l^−1 glucose. Subsequently, 85 µl of the cell suspension was transferred to a white 96-well plate and 10 µl of 50 µM coelenterazine-h was added.
Assay [8] deals with GIPR W90Lfs*17. In words: cAMP accumulation. In kind it is cell-based, human. To be noted: W90Lfs*; HEK293; GIP(1–42) 1 pM–100 nM, 30 min 37 °C; mean of n = 5.
Description: (§5) HEK293 (CRL-1573, American Type Culture Collection) and β-arrestin 1/2 knockout cells, generated from HEK293A[48], were used for cAMP measurement, homologues competition binding and β-arrestin 2 recruitment. For the internalization assay, endosomal signalling and basal receptor localization experiments, HEK293A (R70507, Thermo Fisher) cells were used. Both cell lines were cultured at 5% CO2 at 37 °C in Roswell Park Memorial Institute GlutaMAX-I supplemented with 10% fetal bovine serum, 180 units ml^−1 penicillin, and 45 g ml^−1 streptomycin. For the cAMP and binding experiments, cells were transfected with the calcium phosphate precipitation method[49]. The polyethyleneimine (PEI) transfection method was used for the β-arrestin 2 recruitment assays[50], endosomal signalling and basal receptor localization assays, while the lipofectamine transfection method was used for the internalization assay.
cAMP production was measured with the DiscoverX Hithunter cAMP assay according to the manufacturer’s protocol (DiscoverX). […] On the day of the assay, the cells were washed twice with HEPES-buffered saline (HBS) and incubated with HBS and 1 mM 3-isobutyl-1-methylxanthine for 30 min at 37 °C. […] After a 3-h incubation on a shaking table in the dark, the cAMP accumulation was measured based on luminescence with a Perkin Elmer EnVision 2104 Multilabel Microplate Reader. […]
Assay [9] deals with SNAP-GIPR T116R. To be noted: HEK293A.
In assay [10] the test system is SNAP-GIPR P195R. Conditions: HEK293A.
The subject of assay [11] is SNAP-GIPR A207V. To be noted: HEK293A.
In assay [12] the test system is SNAP-GIPR A185V. Conditions: HEK293A.
The test system of assay [13] is GIPR variants (groups). This is another data set of the same source.
Description: Binding experiments were performed simultaneously with the same transiently transfected HEK293 cells used for the cAMP experiments to enable the correlation of receptor expression with signalling between assays. In brief, 1 day before the assay, the transfected cells were seeded in a clear 96-well plate. […] On the assay day, the cells were washed twice with 4 °C binding buffer (50 mM HEPES buffer (pH 7.2), 1 mM CaCl2, 5 mM MgCl2 and 0.5% (wt/vol) bovine serum albumin) and incubated for 15 minutes at 4 °C. […] After incubation, the cells were washed in ice-cold binding buffer and lysed with 200 mmol l^−1 NaOH with 1% sodium dodecyl sulphate for 30 min. The gamma radiation was measured with a 2470 Wizard2 Automatic Gamma Counter.
To obtain Emax, EC50, Bmax, Kd and IC50 values, we analysed the data with the non-linear regression curve fitting program GraphPad Prism Software 9 (GraphPad).
The Bmax was calculated according to the following equation[51]: Bmax=B0×IC50/[L] in which B0 represents the total specific binding and [L] is the ligand concentration. The equilibrium dissociation constant (Kd) was obtained with the equation[51]: Kd=IC50−[L]
The test system of assay [14] is SNAP-GIPR Y73H. To be noted: HEK293A.
The subject of assay [15] is GIPR variants (groups). Nature of the assay: β-arrestin 2 recruitment (BRET).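 Also: BRET readout of β-arrestin 2 recruitment in transiently transfected HEK293 cells expressing WT GIPR or a GIPR variant plus GPCR kinase 2, Rluc8 donor and citrine acceptor.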
Description: Both cell lines were cultured at 5% CO2 at 37 °C in Roswell Park Memorial Institute GlutaMAX-I supplemented with 10% fetal bovine serum, 180 units ml^−1 penicillin, and 45 g ml^−1 streptomycin. […] The polyethyleneimine (PEI) transfection method was used for the β-arrestin 2 recruitment assays[50], endosomal signalling and basal receptor localization assays, while the lipofectamine transfection method was used for the internalization assay.
as §4
Assay [16] deals with SNAP-GIPR M67R. To be noted: HEK293A.
Assay [17] deals with WT GIPR. Conditions: cited from earlier work.
The test system of assay [18] is GIPR variants (groups). In words: cAMP accumulation. In kind it is cell-based, human. (Cyclic AMP is a second messenger, typically raised through Gs and lowered through Gi signalling.)
Description: as §5
cAMP production was measured with the DiscoverX Hithunter cAMP assay according to the manufacturer’s protocol (DiscoverX). […] On the day of the assay, the cells were washed twice with HEPES-buffered saline (HBS) and incubated with HBS and 1 mM 3-isobutyl-1-methylxanthine for 30 min at 37 °C. […] After the incubation, the assay medium was removed from the plate and the cells were washed with 30 µl PBS and treated with 40 µl enzyme donor–lysis buffer–chemiluminescent reagents and 10 µl cAMP antibodies for 60 min before 40 µl enzyme acceptor solution added. After a 3-h incubation on a shaking table in the dark, the cAMP accumulation was measured based on luminescence with a Perkin Elmer EnVision 2104 Multilabel Microplate Reader.
For cAMP accumulation, the data were fitted as a sigmoidal curve with a Hill slope of 1; for homologous competition binding, the data were fitted as a sigmoidal curve with a Hill slope of −1.
Assay [19] deals with GIPR variants (groups). The source holds these as a separate data set.
For assay [20], the system named is male Arrb2 KO mice. In words: IPGTT in male Arrb2 KO mice. In kind it is in vivo, mouse. Set-up: Mean difference in glucose (Arrb2-/- + Veh. vs. Arrb2-/- + GLP-1): unit not given here. Conditions: for Mean difference in glucose (Arrb2-/- + Veh. vs. Arrb2-/- + GLP-1): injected 15 min before glucose, n = 13 veh., 10. An excerpt: (§2) We therefore explored the functional relationship between β-arrestin recruitment and GIP-stimulated glucose regulation by conducting pharmacological interventions in a murine genetic global germline β-arrestin 2 (Arrb2) knockout (KO) model.
(§3) Studies were approved by and performed according to the guidelines of the Institutional Animal Care and Use Committee of Duke University. Male Arrb2 KO mice (Arrb2^−/−) ~12–15 weeks of age were generously provided by Drs Howard Rockman and Robert Lefkowitz at Duke University[70]. The mice were kept in standard housing conditions with a temperature of 20–26 °C and a 12-h dark/light cycle to ensure the physiological and psychological wellbeing of the mice. Mice were fed research diets 5053. We restrictedly used male mice because of the potential impact of the sexual dimorphism, that is, the oestrus cycle in female mice on cardiometabolic traits, resulting in unwanted variability and to ensure comparability to existing research predominantly using male mice[71]. The mice were subjected to an IPGTT. […] Data collection and analysis were not randomized or blind to the conditions of the experiments. The statistical analysis was performed in GraphPad Prism.

The subject of assay [21] is β cell-specific β-arrestin 2 KO female mice. Conditions: cited from earlier work. An excerpt: In contrast, GIP-potentiated insulin secretion relied on β-a ...
The test system of assay [22] is WT male mice. Nature of the assay: IPGTT in WT male mice. In kind it is in vivo, mouse. Set-up: Mean difference in glucose (WT + Veh. vs. WT + GLP-1): unit not given here. To be noted: for Mean difference in glucose (WT + Veh. vs. WT + GLP-1): injected 15 min before glucose, n = 14 veh., 13.
Description: as §2, §3

Where [23] appears, read: M67R, Y73H, V99I, T116R, A150T, A185V, P195R and A207V.
The mark [24] stands for this setting: R12Q, L13F, R38L, A294V, I299V, E354Q, S415I, E418K, G449A and E463Q.
Setting [25] is: T25R, R43G, R164Q, H166Y, I221M and K397N.

Where two headings read alike, the source gives them in different places.

T1 sequence (P43220 24-463, species assumed): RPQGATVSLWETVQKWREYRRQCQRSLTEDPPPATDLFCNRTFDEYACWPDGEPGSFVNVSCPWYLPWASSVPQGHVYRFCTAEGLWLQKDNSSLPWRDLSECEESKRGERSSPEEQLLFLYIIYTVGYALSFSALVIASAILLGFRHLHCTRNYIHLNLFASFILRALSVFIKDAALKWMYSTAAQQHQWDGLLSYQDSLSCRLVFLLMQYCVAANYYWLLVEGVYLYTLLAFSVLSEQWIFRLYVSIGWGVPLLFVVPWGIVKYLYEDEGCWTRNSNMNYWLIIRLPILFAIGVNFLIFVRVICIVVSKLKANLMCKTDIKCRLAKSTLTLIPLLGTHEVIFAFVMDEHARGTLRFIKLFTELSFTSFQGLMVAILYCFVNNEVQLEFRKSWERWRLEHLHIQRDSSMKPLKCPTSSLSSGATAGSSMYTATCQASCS

On to tirzepatide: GIPR–GLP-1R co-agonist, for which the GIPR activation result in [1] is “activation of GIPR as native GIP”. Further, in [2], the “cAMP pathway activation at the GLP-1R” value is on record as “full activation of the cAMP pathway” and the “β-arrestin recruitment to the GLP-1R” value is “less recruitment of β-arrestin”.
Regarding “glucose-dependent insulinotropic polypeptide [GIP]”, the “Emax (Dose-response), internalization” value is reported as 92 % of maximal SNAP-WT GIPR inte in assay [3] (GIP 1 nM–1 µM, 37 °C, n = 4); 98 % of maximal SNAP-WT GIPR inte in [4] (GIP 1 nM–1 µM, 37 °C, n = 4); 100 % of maximal SNAP-WT GIPR inte in assay [6] (GIP 1 nM–1 µM, 37 °C, n = 4); 93 % of maximal SNAP-WT GIPR inte in assay [9] (GIP 1 nM–1 µM, 37 °C, n = 4); 77 % of maximal SNAP-WT GIPR inte in assay [10] (GIP 1 nM–1 µM, 37 °C, n = 4); 98 % of maximal SNAP-WT GIPR inte in [11] (GIP 1 nM–1 µM, 37 °C, n = 4). For the same substance, the “Emax (Dose-response), internalization” value is recorded as 89 % of maximal SNAP-WT GIPR inte in assay [12] (GIP 1 nM–1 µM, 37 °C, n = 4); 101 % of maximal SNAP-WT GIPR inte in assay [14] (GIP 1 nM–1 µM, 37 °C, n = 4); 98 % of maximal SNAP-WT GIPR inte in assay [16] (GIP 1 nM–1 µM, 37 °C, n = 4). The “LogEC50 (Dose-response), internalization” value in assay [3] (Hill slope 1.0, n = 4) is given as -6.9; in [4] (Hill slope 1.0, n = 4), -7.6; in assay [6] (Hill slope 1.0, n = 4), -7.5; in [9] (Hill slope 1.0, n = 4), -7.6; in assay [10] (Hill slope 1.0, n = 4), -7.2; in [11] (Hill slope 1.0, n = 4), -7.6. The “LogEC50 (Dose-response), internalization” value was -7.5 in [12] (Hill slope 1.0, n = 4); -7.4 in assay [14] (Hill slope 1.0, n = 4); -6.6 in assay [16] (Hill slope 1.0, n = 4). Moreover, the Endosomal signalling entry in assay [5] (variants that retained β-arrestin recruitment) is listed as “effectively recruited mGs to early endosomes”; in [5] (variants with diminished β-arrestin recruitment) it was “minimal to no signalling from early endosomes”. Besides, the “logEC50 (Arrestin)” value in assay [7] (Hill slope 1.0) is -10.8. Further, in assay [7] (normalized to WT GIPR), the “Arrestin (Emax)” value was determined as 15. For the same substance, the “cAMP (Emax)” value in [8] is 11 % of WT GIPR activity. Further, the GIP binding entry in [13] (R190Q and E288G) was “maintained GIP binding”; in [13] (S64P, C84Pfs*70, R101H, Y258Sfs*50 and Q400Gfs*56) it was “undetectable GIP binding”. Also, the “Binding capacity of GIP (Bmax)” value in [13] (all 29 LoF variants) is listed as “impaired”. The β-arrestin recruitment entry is “impaired β-arrestin recruitment” in assay [15] (21 of the 29 variants with impaired cAMP production (LoFcAMP/LoFarr)); “impaired cAMP signalling and β-arrestin recruitment” in assay [15] (R190Q and E288G). In addition, the β-arrestin recruitment class entry is “WT-like” in assay [15] (setting [23]), “WT-like” in assay [15] (setting [24]) and “low β-arrestin recruitment” in [15] (setting [25]). For the same substance, in [15] (most of 47 variants, apart from a few lacking recruitment), the “β-arrestin 2 recruitment potency” value is “no major differences in potency”. The β-arrestin isoform recruitment result in assay [17] is “predominantly recruits β-arrestin 2 over β-arrestin 1”. The “cAMP signalling activity at 100 pM GIP” value in assay [18] (29 partial and complete LoF variants, 100 pM GIP) was < 50 % of WT. Further, the cAMP production class result is “LoF (defined as <50% activity in either pathway)” in assay [18] (setting [23]), “WT-like” in assay [18] (setting [24]) and “maintained cAMP production” in assay [18] (setting [25]). Also, the “cAMP production at higher GIP doses” value in [18] (R183Q, R190Q and R300W, higher GIP doses) was “cAMP production was restored”. Further, the cAMP signalling entry in [18] (R190Q and E288G) is “impaired cAMP signalling”. Also, the “cAMP signalling at 100 pM GIP” value in assay [18] (T116R, R183Q, R190Q and R300W, 100 pM GIP) is on record as “no cAMP signalling”. Moreover, the Level of internalization result in assay [19] (M67R, V99I and P195R) is on record as “slightly diminished internalization”; in assay [19] (Y73H, T116R, A150T, A185V and A207V), “nearly identical levels of internalization as the WT GIPR”. Besides, the Internalization entry is reported as “did not internalize” in [19] (R190Q and E288G (LoFcAMP/LoFarr)); “preserved internalization capabilities” in assay [19] (all eight LoFcAMP/WT-likearr variants).
Consider glucagon-like peptide-1 [GLP-1], for which the “Blood glucose lowering in IPGTT” value in assay [20] (male Arrb2 KO mice, 15 min before IPGTT) was “able to lower blood glucose”; in assay [22] (WT male mice, 15 min before IPGTT), “significantly lowered blood glucose levels”. Also, the “Mean difference in glucose (Arrb2-/- + Veh. vs. Arrb2-/- + GLP-1)” value is 20.9 in assay [20] (time 0, P = 0.011); 44.9 in [20] (time 15 minutes, P = 0.008); 39.3 in assay [20] (time 30 minutes, P = 0.0038); 8.48 in [20] (time 60 minutes, P = 0.216); 3.39 in [20] (time 120 minutes, P = 0.796). Besides, the Insulinotropic properties result in assay [20] (β-arrestin KO mice) was “maintained its insulinotropic properties”. Further, the Acute glycaemic control entry in [21] is listed as “reduced acute GLP-1-mediated glycaemic control”. The “Mean difference in glucose (WT + Veh. vs. WT + GLP-1)” value in assay [22] (time 0, P = 0.031) is recorded as 19.9; in [22] (time 15 minutes, P = 0.025), 40.3; in assay [22] (time 30 minutes, P = 0.094), 28.3; in [22] (time 60 minutes, P = 0.535) it was 8.13; in assay [22] (time 120 minutes, P = 0.741), -1.82.
